Measurements taken from patent US5922891A, “2-substituted 1,8-dihydroxy-9(10H)-anthracenone pharmaceuticals” (priority 1997, dated 1999).
Read-outs that look alike come from different tables or passages of the source.

Columns and labels:
[1] = tested on: HaCaT cells; experiment: Antiproliferative activity against HaCaT cells (human keratinocyte cell line); format: cell-based; settings: 48 h, read-out: AA IC50 (antiproliferative activity)
Method: HaCaT cells were grown in Dulbecco's modified Eagle's medium (DMEM, No. 041-11954A, Gibco) supplemented with 10% fetal calf serum, penicillin (100 U/mL), and streptomycin (100 μg/mL) in a humidified incubator containing 8% CO2 at 37° C. Cells (2.5·10^4 /1.1 ml per well) were seeded on 24-well multidishes and grown in DMEM. After 24 hours of growth, the medium was replaced with fresh medium and a test compound (0.1-5 μM) was added from freshly made stock solutions, which were prepared in DMSO and diluted with DMEM. The final concentration of DMSO in the culture medium was 0.2%. Controls were performed using DMSO or medium alone. Forty-eight hours after addition of a test compound to the culture, the medium was removed and each well was rinsed with phosphate-buffered saline (PBS, 100 μL). The cells were then incubated with sterile 0.5% trypsin, 0.2% EDTA in PBS for 20 minutes at 37° C. The detached cells from each well were suspended in DMEM and dispersed as single cells by gentle pipetting through an Eppendorf pipette. Cell growth was determined directly by counting the keratinocytes on a Neubauer counting chamber using phase contrast microscopy. Inhibition of cell proliferation was calculated by a comparison of the mean value of the test compound (N=3) with the control (N=6-8) activity: (1-test compound/control)×100.

[2] = Inhibition of AAPH-induced lipid peroxidation in bovine brain phospholipid liposomes; format: biochemical
Method: Phospholipids were prepared essentially as described by Gutteridge, J. M. C., (Anal. Biochem., 82: 76-82 (1977)). Bovine brain tissue was cooled on ice, freed from blood vessels and washed repeatedly with 0.15 M NaCl, pH 7.4. The tissue was cut into pieces and then macerated with an ultra-turrax, passed through a fine-meshed sieve, and extracted four times with four times the volume of acetone. The extraction mixture was filtered by suction to remove the acetone, the residue dried under vacuum, and then repeatedly extracted with petroleum ether (40-60) using twice the volume of the original brain homogenate. The combined extracts were filtered, dried at 45° C., and dissolved in ether (one fifth the original brain volume). The mixture was treated with five times the volume of acetone, and the resulting precipitate was collected by suction-filtration, dried and stored under N2 at -20° C. in the dark. Bovine brain phospholipids were weighed into glass tubes and shaken in a vortex mixer (Heidolph) in the presence of five small glass beads (.phi. 4 mm) for 1 minute. The phospholipids were suspended in 0.15 M NaCl, pH 7.4, to a final concentration of 5 mg/ml. The mixture was purged with N2 for 1 minute and vigorously dispersed in a vortex mixer for 5 minutes. The liposomes were allowed to swell for 1 hour at 4° C., and vesicles with a mean size of 1-10 μm were obtained according to the method of Bangham, et al., (J. Mol. Biol., 13:238-252 (1965). The liposomes were stimulated with the azo initiator 2 2'-azobis (2-amidinopropane) hydrochloride according to the method of Gutteridge, J. M. C., (Anal. Biochem. 82:76-82 (1977)).
The following reagents were added to the glass tubes containing stimulating bovine brain phospholipid piposomes in the order and at the final concentrations listed: 0.3 ml HK2 PO4 --KOH buffer, pH 7.4 (30 mM), 0.29 ml double distilled H2 O, 0.2 ml liposomes (1 mg/ml), 0.2 ml FeCl3.H2 O (0.1 mM), 0.01 ml 2-substituted anthracenone compound of the invention (variable concentrations).
Appropriate blanks and controls using the vehicle (acetone) were conducted. The final reaction volumes were standardized to 1.0 ml. The reaction mixtures were incubated for 1 hour at 37° C. in a shaking water bath. […] of 20% (w/v) BHT, 0.5 ml 25% (w/v) HCl and 0.5 ml of 1% 2-thiobarbituric acid were added and the samples were heated at 100° C. for 15 minutes and then cooled in an ice bath (5 minutes). 2 ml of 1-butanol were added and the mixtures were vigorously shaken in a vortex mixer (Heidolph) for 15 seconds. The organic layer was separated by centrifugation at 3000 rpm (15 minutes) and absorbance at 532 nm was measured against butanol.

[3] = Deoxyribose degradation as a measure of hydroxyl radical formation; format: biochemical; settings: 75 μM test compound; controls < 0.1
Method: ^c Deoxyribose degradation as a measure of hydroxyl radical formation
Indicated values are μmoles of malondialdehyde per mmole of deoxyribos
released by 75 μM test compound (controls < 0.1).
Degradation of deoxyribose provides a measurement of the amount of hydroxyl radical formation caused by the test compounds. The assay used to determine degradation of 2-deoxy-D-ribose followed generally the procedures of Gutteridge, J. M. C., Biochem. J., 224: 761-767 (1984) and Laughton, et al., Biochem. Pharmacol., 38: 2859-2865 (1989). The following reagents were added to glass tubes in the order and at the final concentrations listed. 0.3 mL kH2 PO4 --KOH buffer, pH 7.4 (30 mM), 0.2 ml double distilled H2 O, 0.2 ml 2-deoxy-D-ribose (2 mM), 0.2 ml FeCl3.6H2 O (0.1 mM), 0.1 ml 2-substituted anthracenone ([…]). Stock solutions of each of the 2-substituted anthracenone compounds were made up fresh before use. Appropriate blanks and controls using an acetronitrile vehicle were performed.
Final reaction volumes were standardized to 1.0 ml. The reaction mixtures were incubated for 2 hours at 37° C. in a shaking water bath at 50 rpm. 1 ml of 2.8% (w/v) trichloracetic acid and 1 ml of 1% (w/v in 0.05 N NaOH) 2-thiobarbituric acid (TBA) were added, and the samples were heated at 100° C. for 15 minutes and then cooled in an ice bath (5 minutes). 2 ml of each reaction mixture was treated with 0.05 ml of 36% (w/v) HCl and 2 of 1-butanol, followed by vigorous shaking with a vortex mixer (Heidolph) for 15 seconds. The organic layer was separated by centrifugation at 3000 rpm (15 minutes) and absorbance at 532 nm was measured against butanol. Calibration was performed using a malondialdehyde (MDA) standard prepared by hydrolysis of 1,1,3,3-tetraethoxypropane (Gutteridge, J. M. C., Anal. Biochem., 69: 518-526 (1975). TBA reactive material was expressed in terms of μmol MDA per μmol deoxyribose. The results of the assay are provided in Table I.

[4] = biological target: T1, 5-LO in bovine PMNL (Bos taurus, UniProt F1MQ78); experiment: Inhibition of 5-lipoxygenase (5-HETE and LTB4 biosynthesis) in Ca-ionophore-stimulated bovine PMNL; format: cell-based; settings: N = 3 or more
T1 construct: The purified PMNLs were suspended at a concentration of; endogenous in cells; host or cells: polymorphonuclear leukocytes isolated from bovine blood
T1 sequence (F1MQ78 1-674): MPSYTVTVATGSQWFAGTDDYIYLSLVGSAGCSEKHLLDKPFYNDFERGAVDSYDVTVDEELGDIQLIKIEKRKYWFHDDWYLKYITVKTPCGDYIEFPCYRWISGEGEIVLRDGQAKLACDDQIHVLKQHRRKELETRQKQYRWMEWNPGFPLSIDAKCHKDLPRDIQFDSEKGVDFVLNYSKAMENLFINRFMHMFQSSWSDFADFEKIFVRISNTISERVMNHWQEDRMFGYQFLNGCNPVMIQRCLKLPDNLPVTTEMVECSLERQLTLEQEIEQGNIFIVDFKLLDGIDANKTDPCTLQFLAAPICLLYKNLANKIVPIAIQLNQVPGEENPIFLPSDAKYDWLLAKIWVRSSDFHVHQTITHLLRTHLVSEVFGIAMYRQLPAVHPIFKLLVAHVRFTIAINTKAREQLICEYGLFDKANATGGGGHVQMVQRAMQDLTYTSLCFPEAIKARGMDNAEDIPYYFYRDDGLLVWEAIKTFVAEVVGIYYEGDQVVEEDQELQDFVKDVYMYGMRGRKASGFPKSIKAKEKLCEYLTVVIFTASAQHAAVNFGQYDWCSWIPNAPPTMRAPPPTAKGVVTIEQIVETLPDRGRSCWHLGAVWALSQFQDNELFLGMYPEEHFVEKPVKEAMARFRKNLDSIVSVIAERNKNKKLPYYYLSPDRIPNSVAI
Method: Briefly, PMNLs were prepared from sodium EDTA-anticoagulated bovine blood, essentially as described by Walstra, P. et al., (Biochem. Biophys. Acta, 795:499-503 (1984)). Contaminating platelets were removed by repeated centrifugations at 100 g for 20 minutes. […] Cell counts were conducted with a Sysmex micro cell counter CC-130. Preincubation was performed with 2.4 ml of the suspension and 10 μl of a DMSO stock solution of test compounds at the desired concentrations in phosphate buffered saline (PBS) or vehicle control (DMSO at final concentration of 0.4%) for 15 minutes at 37° C. in a shaking water bath at 50 rpm. […] The incubation mixture was held on ice bath for 20 minutes and then centrifuged at 4000 g for 5 minutes at 0° C. The supernatant was diluted with 5 ml of water and passed through a prewashed (10 ml of methanol and 5 ml of water, sequentially) octadecylsilane reversed phase cartridge (Baker). The eicosanoids were eluted with 3 ml of methanol, diluted with 3 ml of water and subjected to reversed phase HPLC analysis using a 250×4 mm column packed with Nucleosil C18 (7 μm particles; Bischoff, Leonberg, Germany). The isocratic elution conditions of LTB4 were tetrahydrofuran (THF)/methanol/water/acetic acid (25+30+45+0.1), adjusted to pH 5.5 with concentrated NH3, at a flow rate of 0.9 ml/min (Kontron 420 pump), monitored at 280 nm with a Kontron 735 LC UV detector. 5-HETE was monitored at 232 nm using methanol/water/acetic acid (77+23+0.1), pH 5.5 and a flow rate 1.0 ml/min. Data were recorded on a MacLab data acquisition system (WissTech, Germany) and analysis was performed using the application Peaks on an Apple Macintosh Quadra 700 computer. Integrated areas of the peaks were compared to a PGB2 internal standard and to external standards of authentic samples. Molar absorption coefficients of Samuelsson et al., Borgeat, P. and B. Samuelsson, (Proc. Natl. Acad. Sci. USA, 76:2148-2152 (1979)), were used for making calculations. Inhibition was calculated by a comparison of the mean value of test compound (n=3) with control (n=6-8) activity: (1-test compound/control)×100.
See Walstra, P. et al., Biochem Biophys. Acta, 795:499-503 (1984); and Dannhardt et al. J. Pharm. Pharmacol., 44:419-424 (1992). […] (Schroder, J. M., J. Invest. Dermatol., 87:624-629 (1986); Tanzer, et al., Arch. Pharm. (Weinheim), 324:841-846 (1991)).

[5] = AAPH-induced, bovine brain phospholipid liposomes, N = 3 or more, read-out: LPO IC50 (inhibition of lipid peroxidation)

SMILES | IC50 [1] | IC50 [2, 5] | DD (deoxyribose degradation, malondialdehyde released) [3] | IC50 [4] | IC50 ([2]; NDGA used as the standard, footnote d, read-out: LPO IC50 of the standard)
CN(O)C(=O)CCCCCc1ccc2c(c1O)C(=O)c1c(O)cccc1C2 [VD, N-Hydroxy-N-methyl-6-(9,10-dihydro-1,8-dihydroxy-9-oxo-2-anthracene)hexanamide] | 0.9 µM | 15 µM | – | – | –
CN(O)C(=O)CCCCc1ccc2c(c1O)C(=O)c1c(O)cccc1C2 [IVD, N-Hydroxy-N-methyl-5-(9,10-dihydro-1,8-dihydroxy-9-oxo-2-anthracene)pentanamide] | – | 16 µM | 1.36 ± 0.05 μmol of MDA/mmol | – | –
COC(=O)CCCc1ccc2c(c1O)C(=O)c1c(O)cccc1C2 [IIIB, Methyl 4-(9,10-Dihydro-1,8-dihydroxy-9-oxo-2-anthracene) butanoate] | 1.1 µM | – | – | > 30 µM | –
COC(=O)C(CCc1ccccc1)c1ccc2c(c1O)C(=O)c1c(O)cccc1C2 (centres unmarked) [XB, Methyl 2-(9,10-Dihydro-1,8-dihydroxy-9-oxo-2-anthracene)-4-phenylbutanoate] | – | – | 0.28 ± 0.03 μmol of MDA/mmol | > 30 µM | –
COC(=O)c1ccc(C(=O)c2ccc3c(c2O)C(=O)c2c(O)cccc2C3)cc1 [XIIB, Methyl 4-[(9,10-Dihydro-1,8-dihydroxy-9-oxo-2-anthracene)oxomethyl]benzoate] | 1.8 µM | – | 2.07 ± 0.12 μmol of MDA/mmol | > 30 µM | –
O=C(O)CCCCCc1ccc2c(c1O)C(=O)c1c(O)cccc1C2 [VA, 6-(9,10-Dihydro-1,8-dihydroxy-9-oxo-2-anthracene) hexanoic acid] | – | – | 2.29 ± 0.03 μmol of MDA/mmol | 19 µM | –
CC(Cc1ccc(O)c(O)c1)C(C)Cc1ccc(O)c(O)c1 (centres unmarked) [Nordihydroguaiaretic acid (NDGA), Nordihydroguaiaretic acid, reference compound] | – | – | – | – | 2 µM
COC(=O)C(Cc1ccccc1)c1ccc2c(c1O)C(=O)c1c(O)cccc1C2 (centres unmarked) [IXB, Methyl 2-(9,10-Dihydro-1,8-dihydroxy-9-oxo-2-anthracene)-3-phenylpropionate] | 1.8 µM | – | 0.01 ± 0.00 μmol of MDA/mmol | > 30 µM | –
CN(O)C(=O)CCc1ccc2c(c1O)C(=O)c1c(O)cccc1C2 [IID, N-Hydroxy-N-methyl-3-(9,10-dihydro-1,8-dihydroxy-9-oxo-2-anthracene)propionamide] | – | 11 µM | 0.92 ± 0.03 μmol of MDA/mmol | – | –
CN(O)C(=O)CCCc1ccc2c(c1O)C(=O)c1c(O)cccc1C2 [IIID, N-Hydroxy-N-methyl-4-(9,10-dihydro-1,8-dihydroxy-9-oxo-2-anthracene)butanamide] | – | 37 µM | 1.50 ± 0.02 μmol of MDA/mmol | – | –
COc1c(OC)c(OC(C)=O)c2cc(Cl)ccc2c1OC(C)=O [Ionapalene, reference compound] | 3.2 µM | – | – | 0.5 µM | –
